Laboratory results published in patent publication US6608082B1, “Treatment of erectile dysfunction using isoquinoline compound melanocortin receptor ligands” (Lion Bioscience AG, priority 1998, dated 2003).

Experiments:
[1] = biological target: T1, MCR-5 (Homo sapiens, UniProt P33032); experiment: Melanocortin receptor binding assay, competition with 125I-HP 467, HEK 293 cells expressing hMCR-5; details: binding to MCR-5, HEK 293 cells; read-out: MC-5 IC50
T1 construct: expressed in transfected cells; host or cells: HEK 293
Description: (§1) All cell culture media and reagents were obtained from GibcoBRL (Gaithersburg Md.), except for COSMIC CALF SERUM (HyClone; Logan Utah). HEK-293 cell lines were transfected with the human MC receptors hMCR-1, hMCR-3, and hMCR-4 (Gantz et al., Biochem. Biophys. Res. Comm. 200:1214-1220 (1994); Gantz et al., J. Biol. Chem. 268:8246-8250 (1993); Gantz et al. J. Biol. Chem. 268:15174-15179 (1993); Haskell-Leuvano et al., Biochem. Biophys. Res. Comm. 204:1137-1142 (1994); each of which is incorporated herein by reference). Vectors for construction of an hMCR-5 expressing cell line were obtained, and a line of HEK 293 cells expressing hMCR-5 was constructed (Gantz, supra, 1994). hMCR-5 has been described previously (Franberg et al., Biochem. Biophys. Res. Commun. 236:489-492 (1997); Chowdhary et al., Cytogenet. Cell Genet. 68:1-2 (1995); Chowdhary et al., Cytogenet. Cell Genet. 68:79-81 (1995), each of which is incorporated herein by reference). HEK 293 cells were maintained in DMEM, 25 mM HEPES, 2 mM glutamine, non-essential amino acids, vitamins, sodium pyruvate, 10% COSMIC CALF SERUM, 100 units/ml penicillin, 100 μg/ml streptomycin and 0.2 mg/ml G418 to maintain selection.
(§2) Before assaying, cells were washed once with phosphate buffered saline (“PBS”; without Ca^2+ and Mg^2+), and stripped from the flasks using 0.25% trypsin and 0.5 mM EDTA. Cells were suspended in PBS, 10% COSMIC CALF SERUM and 1 mM CaCl2. Cell suspensions were prepared at a density of 2×10^4 cells/ml for HEK 293 cells expressing hMCR-3, hMCR-4 or hMCR-5, and 1×10^5 cells/ml for HEK 293 cells expressing hMCR-1. Suspensions were placed in a water bath and allowed to warm to 37° C. for 1 hr.
(§3) Binding assays were performed in a total volume of 250 μl for HEK 293 cells. Control and test compounds were dissolved in distilled water. ^125I-HP 467 (50,000 dpm) (2000 Ci/mmol) (custom labeled by Amersham; Arlington Heights Ill.) was prepared in 50 mM Tris, pH 7.4, 2 mg/ml BSA, 10 mM CaCl2, 5 mM MgCl2, 2 mM EDTA and added to each tube. To each tube was added 4×10^3 HEK 293 cells expressing hMCR-3, hMCR-4 or hMCR-5, or 2×10^4 cells expressing hMCR-1. Assays were incubated for 2.5 hr at 37° C.
(§4) GF/B filter plates were prepared by soaking for at least one hour in 5 mg/ml BSA and 10 mM CaCl2. Assays were filtered using a Brandel 96-well cell harvester (Brandel Inc.; Gaithersburg, Md.). The filters were washed four times with cold 50 mM Tris, pH 7.4, the filter plates were dehydrated for 2 hr and 35 μl of MICROSCINT was added to each well. Filter plates were counted using a Packard Topcount (Packard Instrument Co.) and data analyzed using GraphPad PRISM v2.0 (GraphPad Software Inc.; San Diego Calif.) and Microsoft EXCEL v5.0a (Microsoft Corp.; Redmond Wash.).
(§5) To assay isoquinoline compounds, binding assays were performed in duplicate in a 96 well format. HP 467 was prepared in 50 mM Tris, pH 7.4, and ^125I-HP 467 was diluted to give 100,000 dpm per 50 μl. An isoquinoline compound, synthesized as described in Example I, was added to the well in 25 μl aliquots. A 25 μl aliquot of ^125I-HP 467 was added to each well. A 0.2 ml aliquot of suspended cells was added to each well to give the cell numbers indicate above, and the cells were incubated at 37° C. for 2.5 hr. Cells were harvested on GF/B filter plates as described above and counted.
(§6) Some of the isoquinoline compounds were further tested for binding to MCR-3 and MCR-5.

[2] = test system: IL-10; experiment: Increasing levels of IL-10 in mice (plasma ELISA); format: in vivo; details: IP, mouse plasma, 90 or 105 minutes
Experimental: Isoquinoline compounds were administered intraperitoneally to mice in doses of 30, 100 or 300 μg/mouse or orally in doses of 300 or 600 μg/mouse. Levels of IL-10 were measured 90 or 105 minutes after administration as indicated. Samples were collected and diluted, when appropriate, as described in Example VI. A 100 μl sample of plasma was assayed by ELISA for IL-10. Briefly, ELISA plates were coated with rat anti-mouse IL-10 monoclonal antibody (Pharmingen; San Diego Calif.). Samples or known concentrations of IL-10 were added to the coated plates and incubated for 2 hr at 37° C. Plates were washed and incubated with biotinylated rat anti-mouse IL-10 (R&D Systems; Minneapolis Minn.) for 1 hr at 37° C. Plates were washed and incubated with streptavidin-HRP 30 min at 37° C., and HRP activity was detected with hydrogen peroxide and TMB using standard immunoassay procedures.

[3] = test system: TNF-α; experiment: Reduction of lipopolysaccharide-induced tumor necrosis factor levels in mice; format: in vivo, BALB/c female mice; details: IP, plasma 90 or 105 minutes after LPS, mean ± SEM
Experimental: BALB/c female mice weighing approximately 20 g were placed into a control group and a treated group. Five mg/kg of LPS in 0.9% saline was administered (100 μl to give 100 μg LPS per mouse) by intraperitoneal (IP) injection to all mice. Mice in the treatment group received either 30, 100, 300 or 600 μg of various isoquinoline compounds per mouse in a volume of 100 μl of PBS. Control mice received 100 μl of saline alone. One minute after initial injections all mice received the LPS injection. As a positive control, 100 μg of HP 228 was injected per mouse.
Blood samples were collected from the orbital sinus of treated and control mice 90 minutes or 105 minutes after LPS administration. The plasma was separated by centrifugation at 3000×g for 5 min and stored at −20° C. Samples were thawed and diluted, if TNF-α concentration was greater than 3200 pg/ml, with PBS containing 1% bovine serum albumin, 10% donor horse serum, 1% normal mouse serum, 0.05% TWEEN-20 and 0.05% thimerosal. A 100 μl sample of plasma was assayed by ELISA for TNF-α. Briefly, ELISA plates were coated with hamster anti-mouse TNF-α antibody (Genzyme; Cambridge Mass.). Samples or known concentrations of TNF-α were added to the coated plates and incubated for 2 hr at 37° C. Plates were washed and subsequently incubated with biotinylated rabbit anti-mouse TNG-α for 1 hr at 37° C. Plates were washed and incubated with streptavidin-HRP for 1 hr at 37° C., and HRP activity was detected with hydrogen peroxide and o-phenylenediamine (OPD) using standard immunoassay procedures.
The mean (±SEM) TNF-α level in five mice from each group was determined and the percent reduction in TNF-α levels was calculated.

[4] = biological target: T2, MCR-3 (Homo sapiens, UniProt P41968); experiment: Melanocortin receptor binding assay, competition with 125I-HP 467, HEK 293 cells expressing hMCR-3; details: binding to MCR-3, HEK 293 cells; read-out: MC-3 IC50
T2 construct: expressed in transfected cells; host or cells: HEK 293
Description: as §1, §2, §3, §4, §5, §6

[5] = test system: arachidonic acid induced dermal inflammation; experiment: Arachidonic acid induced dermal inflammation (ear thickness); format: in vivo, Female BALB/c mice
Experimental: Female BALB/c mice (17-22 g) were used and administered the test isoquinoline compounds or positive control compounds 30 to 60 min prior to topical application of arachidonic acid. Indomethacin and HP 228 were used as positive controls. Compounds were administered orally (p.o.) or intraperitoneally (i.p.). Initial ear thickness (left and right) was measured using spring loaded micro-calipers. Arachidonic acid was applied to mice anesthetized with a cocktail of ketamine/xylazine (7.0 mg/ml and 0.6 mg/ml, respectively) administered i.p. (300 μl/mouse). Utilizing a micro-pipette, 20 μl of arachidonic acid solution (100 mg/ml ethanol or acetone) was applied to the right ear (10 μl to inner and 10 μl to outer surfaces of […] for a total of 2 mg arachidonic acid per right ear), and 20 μl of vehicle (ethanol or acetone) was applied to the left ear. Mice were returned to their cages to recover. Mice were again anesthetized 50 min after arachidonic acid application and their ears measured.
Dermal inflammation was determined by subtracting the difference of the vehicle treated left ear (L60−L0) from the difference of the arachidonic acid treated right ear (R60−R0). Ear thickness measurements were averaged for each group, and the responses in the vehicle treated control group (Cr; saline or PBS) were subtracted from the response noted in the isoquinoline compound treated group (Tr) to give the relative inflammatory response for each treatment group compared to the control group. The percent inhibition is defined by the equation: % inhibition=(Cr−Tr)/(Cr)×100.

[6] = Body weight and food consumption after i.p. administration; format: in vivo, Sprague-Dawley rats; details: rats, 5 mg/kg i.p., 18 hours after injection; FIG. 6
Description: Adult male Sprague-Dawley rats (175-225 g) were used to assess the effect of isoquinoline compounds on food uptake and body weight. Baseline body weight and food consumption measurements were taken for 3 days prior to start of the study (Day 0). On Day −1, the food was taken away from the animals at 5:00 PM. The next morning (Day 0), body weight measurements were taken, and the animals were divided into treatment groups with 6 animals in each group. The treatment groups were saline control, HP 228 positive control and test isoquinoline compounds. Saline was administered i.p. at 1 ml/kg. HP 228 and test isoquinoline compounds were administered i.p. at 5 mg/kg. The injections were initiated at 2:00 PM on Day 0.
Body weight and food consumption measurements were taken at 9 hr (Day 0; 11:00 PM) and at 18 hr (Day 1, 8:00 AM) after injection. At the end of the study, all evaluated parameters (9 and 18 hour body weight and food consumption) were analyzed by standard statistical methods. Significance (P<0.05) was determined by one-way ANOVA, ANOVA for repeated measures, or Student's t-test.
The level of reduction was similar to that seen with HP 228.

T1 sequence (P33032 whole entry): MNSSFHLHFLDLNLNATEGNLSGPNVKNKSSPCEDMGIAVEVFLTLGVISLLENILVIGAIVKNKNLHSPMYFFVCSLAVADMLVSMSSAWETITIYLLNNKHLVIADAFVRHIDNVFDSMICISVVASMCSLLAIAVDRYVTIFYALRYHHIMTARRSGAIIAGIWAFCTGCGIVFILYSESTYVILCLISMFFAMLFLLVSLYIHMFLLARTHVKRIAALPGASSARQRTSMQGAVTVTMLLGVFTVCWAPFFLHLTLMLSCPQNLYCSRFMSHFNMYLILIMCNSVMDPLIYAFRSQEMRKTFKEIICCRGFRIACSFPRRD
T2 sequence (P41968 whole entry): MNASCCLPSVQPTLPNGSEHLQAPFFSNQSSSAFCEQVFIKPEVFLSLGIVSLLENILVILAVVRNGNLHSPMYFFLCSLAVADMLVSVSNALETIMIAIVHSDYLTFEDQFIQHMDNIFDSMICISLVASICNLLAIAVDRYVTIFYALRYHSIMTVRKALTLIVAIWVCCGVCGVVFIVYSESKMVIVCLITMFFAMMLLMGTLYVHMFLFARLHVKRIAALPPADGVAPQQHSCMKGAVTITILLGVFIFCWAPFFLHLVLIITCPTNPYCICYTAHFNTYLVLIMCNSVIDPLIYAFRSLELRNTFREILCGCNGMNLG

| Molecule | IC50 [1] [µM] | % IL-10 Induction, IP 30 ([2]; 30 μg per mouse) [%] | % IL-10 Induction, IP 300 ([2]; 300 μg per mouse) [%] | % TNF-α Inhibtion, IP 30 ([3]; 30 μg per mouse) [%] | % TNF-α Inhibtion, IP 300 ([3]; 300 μg per mouse) [%] | IC50 [4] [µM] | inhibition of arachidonic acid induced dermal inflammation ([5]; 100 μg/mouse administered intraperitoneally, FIG. 4) | inhibition of arachidonic acid induced dermal inflammation ([5]; administered intraperitoneally, TRG 2405-241 300 μg/mouse, HP 228 100 μg/mouse, FIG. 3) | reduction in the level of arachidonic acid-induced dermal inflammation ([5]; intraperitoneally, HP 228 100 μg/mouse, TRG 2409-2 or TRG 2409-14 100 or 300 μg/mouse, FIG. 5) | food consumption [6] | weight gain [6] |
| --- | --- | --- | --- | --- | --- | --- | --- | --- | --- | --- | --- |
| CCNc1ccc(C2C(CNC3CCCC3)c3ccccc3CN2CCCCC(CN)NC)cc1 (centres unmarked) [TRG 2407-67] | 4.16 | −3 ± 15 | 29 ± 8 | 8 ± 14 | 73 ± 3 | 20.9 |  |  |  |  |  |
| Ac-Nle-Gln-His-(D)Phe-Arg-(D)Trp-Gly-NH2 [HP 228, reference compound] |  |  |  |  |  |  | inhibition of arachidonic acid induced dermal inflammation | inhibition of arachidonic acid induced dermal inflammation | reduction | reduction | reduction |
